How the values were obtained:
ABC50 [1] = target: T1, ABC50 (Homo sapiens, UniProt Q8NE71); assay: ABC50 level by Western blotting in HeLa cells (PROTAC approach); type: cell-based; parameters: endogenous in cells; details: 96 h, 7 (30 µM), 8 (15 µM), 9 (30 µM)
Procedure: (§1) Cells were lysed in TBS buffer containing 1% Triton X-100 and Complete® protease inhibitor cocktail (Roche) for 15 min on ice with occasional vortexing. Insoluble material was centrifuged (12,000 rpm, 15 min, 4 °C) and supernatants were collected. Total protein concentration was measured with DC Protein Assay (Bio-Rad, Hercules, CA, USA). Cell lysates containing 30 µg of total protein were mixed with Laemli buffer supplemented with SDS and β-mercaptoethanol, denatured (10 min, 95 °C) and subjected to sodium dodecyl sulfate polyacrylamide gel electrophoresis (SDS-PAGE) electrophoresis (4% stacking and 10% resolving gels). Resolved proteins were electrotransferred (semi-dry, 90 min, 1.5 mA/cm^2) to a 0.45 µm nitrocellulose membrane (Thermo Scientific, Waltham, MA, USA). Membranes were blocked for 2 hours in TBST buffer (20 mM Tris-HCl pH 7.5, 0.9% NaCl, 0.1% Tween 20) containing 5% BSA (BioShop, Burlington, ON, Canada) and probed with primary antibodies (overnight at 4 °C) diluted in TBST buffer with 0.5% BSA. Tubulin served as a loading control for IB experiments. Anti IKZF3 (rabbit monoclonal, dilution 1:500), anti IKZF1 (rabbit polyclonal, dilution 1:500) were from Abcam. Anti IRF4 (rabbit polyclonal, dilution 1:500) were from Cell Signaling Technology. Anti α-tubulin (mouse monoclonal IgG, 1:1000) was from Sigma Aldrich. Anti ABC50 antibodies (mouse monoclonal ABC5H06, dilution 1:100) was from Abcam. After extensive washing with TBST buffer, membranes were probed with secondary goat anti-rabbit or goat anti-mouse HRP-conjugated IgG (1:5000 in TBST, Santa Cruz Biotech, Dallas, TX, USA) for 45 min at room temperature. […] Protein bands intensities were analysed using Image Quant (version 5.0, GE Healthcare Life Sciences, Pittsburgh, PA, USA).
(§2) ABC50 was identified as the target of the test dicarboximides in the pull-down experiments. […] It must be noted that 7, 8 and 9 were evaluated as mixtures of enantiomers. K562 and HeLa cells were incubated with chimeras 7 (30 µM), 8 (15 µM) and 9 (30 µM) for 96 h and subsequently the level of ABC50 was determined by Western blotting. […]

[2] = tested on: HUVEC (human umbilical vein endothelial cells); assay: MTT cytotoxicity assay, HUVEC; type: cell-based; details: 48 h, mean ± SD
Procedure: (§3) Human umbilical vein endothelial cells (purchased from Life Technologies, Carlsbad, CA, USA) were cultured according to the manufacturer’s instructions in Medium 200 supplemented with Low Serum Growth Supplement. 1 × 10^4 cells were seeded on each well on a 96-well plate (Nunc, Roskilde, Denmark). The HeLa (human cervix carcinoma, cat. #93021013), CFPAC (human pancreatic adenocarcinoma, cat. #91112501), K562 (chronic myelogenous leukemia, cat. #89121407), HL-60 (acute myelogenous leukemia, cat. #98070106), and MOLT-4 (Human acute T lymphoblastic leukemia, cat. #85011413) cells were purchased from European Collection of Authenticated Cell Cultures (ECACC). They were cultured in an RPMI 1640 medium supplemented with antibiotics (streptomycin, penicillin) and 10% fetal calf serum (20% for HL60), in a 5% CO2-95% air atmosphere. 7 × 10^3 cells were seeded on each well on a 96-well plate (Nunc). 24 hours later the cells were exposed to the test compounds. The aliquots of stock solutions of the test compounds (freshly prepared in DMSO) were added to the cell cultures to yield final concentrations of 1, 10^−1, 10^−2, 10^−3, 10^−4, and 10^−5 mM. The concentration of DMSO in the cell culture medium was 1%. The IC50 value (the concentration of a test compound required to reduce the cell survival fraction to 50% of the control) was calculated from a dose-response curve and used as a measure of cellular sensitivity to a given treatment. The IC50 values are given as means (± standard deviation (SD)) from 2 independent experiments with 4 technical replicates. The cytotoxicity of all compounds was determined by the MTT (3-(4,5-dimethylthiazol-2-yl)-2,5-diphenyltetrazolium bromide) assay (Sigma, St. Louis, MO, USA). Briefly, after 24 h or 48 h of incubation with a given compound, the cells were treated with the MTT reagent and incubation was continued for 2 h. MTT-formazan crystals were dissolved in 20% SDS and 50% DMF at pH 4.7 and VIS light absorption was measured at 570 and 650 nm on a microplate reader FLUOstar Omega (BMG Labtech, Offenburg, Germany). As a control (100% viability), cells grown in the presence of 1% DMSO were used.

ABC50 [3] = target: T1, ABC50; assay: ABC50 level by Western blotting in K562 cells (PROTAC approach); type: cell-based; parameters: endogenous in cells; host or cells: K562 cell lysate; details: K562, 96 h, 7 (30 µM), 8 (15 µM), 9 (30 µM)
Procedure: as §1, §2

K562 cells = assay: MTT cytotoxicity assay, K562; type: cell-based; details: Homo sapiens, 48 h, mean ± SD
Procedure: as §3

HeLa cells = assay: MTT cytotoxicity assay, HeLa; type: cell-based; details: Homo sapiens, 48 h, mean ± SD
Procedure: as §3

MOLT-4 cells = assay: MTT cytotoxicity assay, MOLT-4; type: cell-based; details: Homo sapiens, 48 h, mean ± SD
Procedure: as §3

T1 sequence (Q8NE71 whole entry): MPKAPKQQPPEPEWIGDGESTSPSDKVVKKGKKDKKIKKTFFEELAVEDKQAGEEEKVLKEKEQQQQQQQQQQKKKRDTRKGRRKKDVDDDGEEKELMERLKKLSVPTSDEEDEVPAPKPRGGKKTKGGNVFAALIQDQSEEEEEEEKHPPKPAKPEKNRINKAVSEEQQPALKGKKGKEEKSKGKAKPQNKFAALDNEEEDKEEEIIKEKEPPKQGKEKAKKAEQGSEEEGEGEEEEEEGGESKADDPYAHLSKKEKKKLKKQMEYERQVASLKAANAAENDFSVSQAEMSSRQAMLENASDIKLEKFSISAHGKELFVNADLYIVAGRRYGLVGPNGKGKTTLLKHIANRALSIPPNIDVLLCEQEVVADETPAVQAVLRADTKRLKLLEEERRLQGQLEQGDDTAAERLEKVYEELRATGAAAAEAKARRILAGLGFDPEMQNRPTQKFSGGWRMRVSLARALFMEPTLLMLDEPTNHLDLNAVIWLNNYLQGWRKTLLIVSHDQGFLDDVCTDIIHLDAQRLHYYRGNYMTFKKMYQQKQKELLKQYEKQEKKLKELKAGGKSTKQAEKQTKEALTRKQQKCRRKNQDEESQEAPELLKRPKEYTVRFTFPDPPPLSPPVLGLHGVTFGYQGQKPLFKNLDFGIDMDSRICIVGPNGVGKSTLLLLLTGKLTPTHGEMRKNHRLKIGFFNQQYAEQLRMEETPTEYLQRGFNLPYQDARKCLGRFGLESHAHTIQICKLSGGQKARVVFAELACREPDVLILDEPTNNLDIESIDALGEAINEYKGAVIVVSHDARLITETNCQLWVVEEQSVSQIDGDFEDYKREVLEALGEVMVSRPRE

Row | Compound | level of ABC50 (Western blotting) (ABC50 [1]) | IC50 [2] [µM] | level of ABC50 (Western blotting) (ABC50 [3]) | melting point [°C] | IC50 (K562 cells) [µM] | IC50 (HeLa cells) [µM] | IC50 (MOLT-4 cells) [µM]
1 | CC12C(=O)C(C)(C(c3ccccc3)=C1c1ccccc1)C1C(=O)N(C3CCC(=O)NC3=O)C(=O)C12 (stereo not drawn) [Compound 7, 4-(2,6-dioxopiperidin-3-yl)-1,7-dimethyl-8,9-diphenyl-4-azatricyclo[5.2.1.0^2,6]dec-8-ene-3,5,10-trione] | significantly downregulated | 200 | significantly reduced | 217 to 218 | 170 | 180 | 150
2 | CCC12C(=O)C(CC)(C(c3ccccc3)=C1c1ccccc1)C1C(=O)N(C3CCC(=O)NC3=O)C(=O)C12 (stereo not drawn) [Compound 8, 4-(2,6-dioxopiperidin-3-yl)-1,7-diethyl-8,9-diphenyl-4-azatricyclo[5.2.1.0^2,6]dec-8-ene-3,5,10-trione] | significantly downregulated | 65 | significantly reduced | 232 to 234 | 25 | > 200 | 18
3 | O=C1CCC(N2C(=O)C3C(C2=O)C2(c4ccccc4)C(=O)C3(c3ccccc3)C(c3ccccc3)=C2c2ccccc2)C(=O)N1 (stereo not drawn) [Compound 9, 4-(2,6-dioxopiperidin-3-yl)-1,7,8,9-tetraphenyl-4-azatricyclo[5.2.1.0^2,6]dec-8-ene-3,5,10-trione] | didn’t have such pronounced effect | > 200 | significantly reduced | 230 to 232 | > 200 | > 200 | > 200

From PMC6770581, “New Thalidomide-Resembling Dicarboximides Target ABC50 Protein and Show Antileukemic and Immunomodulatory Activities” (Biomolecules, 2019)
